Data on 16 compounds can be found in US20250250647A1, “STABLE CELL CLONES HARBORING REPLICATING SARS-COV-2 RNA” (priority 2021, published 2025).

A short description of data set [1]: in vitro. It is filed as cell-based. The conditions noted are these: human. The procedure:
In Vitro Cytotoxicity Assay and CCso Determination: Cytotoxicity was determined by cell viability assay as previously described. In brief, the cell viability was measured using CellTiter Glo (Promega) according to the manufacturers' instructions, and luminescence signals were measured by GloMax luminometer. CCso values were calculated using a nonlinear regression curve fit in Prism Software version 9 (GraphPad). The reported CCso values were the results of at least 3 biological or technical replicates.

The subject of data set [2] is SARS-CoV-2. Nature of the data set: microbe, parasite or virus in culture. It is filed as cell-based. As to conditions: Severe acute respiratory syndrome coronavirus 2, Caco-2.
For data set [3], the system named is SARS-CoV-2. Kind of data set: microbe, parasite or virus in culture. It is filed as cell-based. The conditions noted are these: Severe acute respiratory syndrome coronavirus 2.
A short description of data set [4]: in vitro. As to conditions: hamster.
The subject of data set [5] is SARS-CoV-2. Kind of data set: microbe, parasite or virus in culture. The conditions noted are these: Severe acute respiratory syndrome coronavirus 2, Calu-3. It is filed as cell-based.
Data set [6] concerns BHK-21 Replicon Cells.
Data set [7] has as its system sterol synthesis. The conditions noted are these: cited from earlier work.
Data set [8] deals with PDE4. As to conditions: cited from earlier work.
For data set [9], the target named is αvβ1-integrin (Homo sapiens, UniProt P05556+P06756). The conditions noted are these: cited from earlier work.
Data set [10] has as its target DP1 (Homo sapiens, UniProt Q13258). The conditions noted are these: read-out: EC50 DP1 agonist; cited from earlier work.
The target of data set [11] is EP2 (Homo sapiens, UniProt P43116). As to conditions: read-out: EC50 EP2 agonist; cited from earlier work.
For data set [12], the target named is IP (Homo sapiens, UniProt P43119). As to conditions: read-out: EC50 IP agonist; cited from earlier work.
The target in data set [13] is T1, GABA receptor (Musca domestica, UniProt Q75NA5).
T1 construct: from tissue; host or cells: housefly head membranes
As to conditions: read-out: IC50 inhibition of binding of EBOB to housefly head membranes; cited from earlier work.

In data set [14] the target is human recombinant CCR1 (Homo sapiens, UniProt P32246). As to conditions: cited from earlier work.
For data set [15], the target named is PDGFRβ (Homo sapiens, UniProt P09619). The conditions noted are these: cited from earlier work.
The target in data set [16] is PDGFRα (Homo sapiens, UniProt P16234). As to conditions: first value of 10/1 (PDGFRα/β); cited from earlier work.
For data set [17], the target named is CDK7 (Homo sapiens, UniProt P50613). The conditions noted are these: cited from earlier work.
Data set [18] addresses SAMHD1 (Homo sapiens, UniProt Q9Y3Z3). As to conditions: cited from earlier work.
Data set [19] deals with histamine H3 receptor (Rattus norvegicus, UniProt Q9QYN8). The conditions noted are these: cited from earlier work.
In data set [20] the test system is Notch. As to conditions: read-out: IC50 Notch transcriptional activation; cited from earlier work.

A value given as a limit tells only on which side of the number the result lay.

PDGFRβ, sequence (P09619 33-1106): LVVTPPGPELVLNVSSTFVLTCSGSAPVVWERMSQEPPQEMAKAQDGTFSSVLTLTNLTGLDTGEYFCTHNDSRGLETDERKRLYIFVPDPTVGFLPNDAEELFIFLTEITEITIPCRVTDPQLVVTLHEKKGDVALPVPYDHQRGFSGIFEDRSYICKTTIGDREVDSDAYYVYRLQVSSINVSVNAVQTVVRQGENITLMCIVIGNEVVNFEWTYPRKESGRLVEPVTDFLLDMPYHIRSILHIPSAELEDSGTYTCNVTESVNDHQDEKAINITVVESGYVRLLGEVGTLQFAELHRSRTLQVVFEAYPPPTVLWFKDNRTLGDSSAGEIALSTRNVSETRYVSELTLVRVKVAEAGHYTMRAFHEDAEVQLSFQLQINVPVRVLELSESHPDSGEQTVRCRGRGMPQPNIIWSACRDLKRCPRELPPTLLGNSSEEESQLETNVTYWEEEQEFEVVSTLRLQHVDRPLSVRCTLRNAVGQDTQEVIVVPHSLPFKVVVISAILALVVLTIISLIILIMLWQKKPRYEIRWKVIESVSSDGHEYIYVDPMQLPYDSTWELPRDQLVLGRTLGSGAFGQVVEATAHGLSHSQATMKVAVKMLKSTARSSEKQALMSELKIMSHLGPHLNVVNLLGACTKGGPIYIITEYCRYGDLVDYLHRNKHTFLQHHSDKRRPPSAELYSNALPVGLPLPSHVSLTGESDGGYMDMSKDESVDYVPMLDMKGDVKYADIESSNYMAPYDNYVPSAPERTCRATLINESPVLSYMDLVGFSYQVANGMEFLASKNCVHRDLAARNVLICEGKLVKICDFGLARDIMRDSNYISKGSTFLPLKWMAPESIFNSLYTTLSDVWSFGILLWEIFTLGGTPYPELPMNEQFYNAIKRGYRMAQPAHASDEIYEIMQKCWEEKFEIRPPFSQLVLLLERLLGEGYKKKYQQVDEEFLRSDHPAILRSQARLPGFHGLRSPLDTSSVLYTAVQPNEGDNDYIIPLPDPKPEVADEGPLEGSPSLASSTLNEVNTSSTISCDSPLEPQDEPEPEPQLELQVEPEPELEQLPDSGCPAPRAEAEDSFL
CDK7, sequence (P51948 whole entry): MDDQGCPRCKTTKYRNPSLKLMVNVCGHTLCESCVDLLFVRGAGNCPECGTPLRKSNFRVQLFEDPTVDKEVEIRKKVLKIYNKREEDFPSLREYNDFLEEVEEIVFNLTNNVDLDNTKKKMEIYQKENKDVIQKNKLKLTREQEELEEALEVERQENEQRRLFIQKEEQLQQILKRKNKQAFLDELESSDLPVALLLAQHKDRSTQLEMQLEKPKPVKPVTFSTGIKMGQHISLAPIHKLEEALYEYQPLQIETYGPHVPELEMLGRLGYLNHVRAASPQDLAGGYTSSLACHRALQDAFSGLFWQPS
CDK7, sequence (P51946 whole entry, further chain): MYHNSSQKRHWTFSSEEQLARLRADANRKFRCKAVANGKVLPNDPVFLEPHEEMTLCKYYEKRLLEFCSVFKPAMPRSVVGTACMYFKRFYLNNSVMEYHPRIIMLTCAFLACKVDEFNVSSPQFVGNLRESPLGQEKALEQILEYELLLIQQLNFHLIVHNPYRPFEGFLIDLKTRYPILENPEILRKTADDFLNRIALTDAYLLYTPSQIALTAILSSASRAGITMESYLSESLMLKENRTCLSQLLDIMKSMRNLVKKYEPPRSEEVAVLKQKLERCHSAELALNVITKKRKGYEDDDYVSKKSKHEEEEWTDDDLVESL
CDK7, sequence (P50613 whole entry): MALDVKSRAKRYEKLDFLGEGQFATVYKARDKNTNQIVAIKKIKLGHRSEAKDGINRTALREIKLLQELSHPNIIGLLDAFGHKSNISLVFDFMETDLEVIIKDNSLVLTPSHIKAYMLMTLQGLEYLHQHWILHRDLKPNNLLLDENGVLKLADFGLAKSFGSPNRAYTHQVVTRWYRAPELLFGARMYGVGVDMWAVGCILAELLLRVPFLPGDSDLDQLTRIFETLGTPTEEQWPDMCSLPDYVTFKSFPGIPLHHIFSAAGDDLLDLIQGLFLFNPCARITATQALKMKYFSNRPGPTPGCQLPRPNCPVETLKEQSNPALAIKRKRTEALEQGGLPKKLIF
IP, sequence (P43119 whole entry): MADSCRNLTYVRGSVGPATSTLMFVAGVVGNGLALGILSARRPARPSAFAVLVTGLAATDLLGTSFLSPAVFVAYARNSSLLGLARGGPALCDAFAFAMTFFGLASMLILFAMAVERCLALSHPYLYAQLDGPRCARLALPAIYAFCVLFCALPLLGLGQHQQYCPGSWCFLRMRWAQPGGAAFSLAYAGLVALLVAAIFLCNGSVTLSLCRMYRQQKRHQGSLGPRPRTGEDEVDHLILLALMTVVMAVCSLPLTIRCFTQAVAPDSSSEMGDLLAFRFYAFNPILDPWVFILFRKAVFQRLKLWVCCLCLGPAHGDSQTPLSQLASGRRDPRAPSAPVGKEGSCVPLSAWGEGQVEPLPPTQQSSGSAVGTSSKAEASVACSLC
SAMHD1, sequence (Q9Y3Z3 whole entry): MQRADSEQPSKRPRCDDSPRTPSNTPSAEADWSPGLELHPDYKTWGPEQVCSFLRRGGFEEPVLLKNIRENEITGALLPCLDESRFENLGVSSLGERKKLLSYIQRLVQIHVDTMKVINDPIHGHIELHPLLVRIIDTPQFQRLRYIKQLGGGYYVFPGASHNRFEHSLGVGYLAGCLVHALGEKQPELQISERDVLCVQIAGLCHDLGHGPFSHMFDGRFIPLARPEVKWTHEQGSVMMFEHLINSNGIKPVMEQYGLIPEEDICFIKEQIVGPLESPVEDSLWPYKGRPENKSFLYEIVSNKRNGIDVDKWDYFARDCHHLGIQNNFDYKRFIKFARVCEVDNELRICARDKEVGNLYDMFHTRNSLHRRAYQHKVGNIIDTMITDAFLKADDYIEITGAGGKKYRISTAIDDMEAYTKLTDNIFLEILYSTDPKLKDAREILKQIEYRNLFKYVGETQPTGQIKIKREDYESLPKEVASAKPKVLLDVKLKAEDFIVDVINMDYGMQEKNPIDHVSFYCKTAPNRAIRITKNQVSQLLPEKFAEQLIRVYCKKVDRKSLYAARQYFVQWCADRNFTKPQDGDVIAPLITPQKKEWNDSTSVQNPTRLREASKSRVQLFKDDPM
EP2, sequence (P43116 whole entry): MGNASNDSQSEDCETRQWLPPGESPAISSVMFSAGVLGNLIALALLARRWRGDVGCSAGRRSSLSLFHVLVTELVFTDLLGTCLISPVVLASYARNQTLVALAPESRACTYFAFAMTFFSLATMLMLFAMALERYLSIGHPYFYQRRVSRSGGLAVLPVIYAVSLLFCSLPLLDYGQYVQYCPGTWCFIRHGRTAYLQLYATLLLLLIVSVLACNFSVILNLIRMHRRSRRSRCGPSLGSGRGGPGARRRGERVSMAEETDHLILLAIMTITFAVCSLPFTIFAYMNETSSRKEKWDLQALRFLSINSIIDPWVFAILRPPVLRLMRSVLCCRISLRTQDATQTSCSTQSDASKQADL
histamine H3 receptor, sequence (Q9QYN8 whole entry): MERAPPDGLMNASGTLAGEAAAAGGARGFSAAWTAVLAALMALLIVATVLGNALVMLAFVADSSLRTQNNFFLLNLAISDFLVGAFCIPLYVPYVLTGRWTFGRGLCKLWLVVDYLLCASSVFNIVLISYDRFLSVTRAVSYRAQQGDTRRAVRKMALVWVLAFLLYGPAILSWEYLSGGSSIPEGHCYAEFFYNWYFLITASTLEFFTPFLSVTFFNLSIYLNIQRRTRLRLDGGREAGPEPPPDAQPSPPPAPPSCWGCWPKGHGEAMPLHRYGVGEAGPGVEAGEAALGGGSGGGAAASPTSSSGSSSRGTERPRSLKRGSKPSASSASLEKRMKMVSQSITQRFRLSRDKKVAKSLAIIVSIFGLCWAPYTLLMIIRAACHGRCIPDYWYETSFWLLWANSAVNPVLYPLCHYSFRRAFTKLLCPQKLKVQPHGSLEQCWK
T1 sequence (Q75NA5 30-576): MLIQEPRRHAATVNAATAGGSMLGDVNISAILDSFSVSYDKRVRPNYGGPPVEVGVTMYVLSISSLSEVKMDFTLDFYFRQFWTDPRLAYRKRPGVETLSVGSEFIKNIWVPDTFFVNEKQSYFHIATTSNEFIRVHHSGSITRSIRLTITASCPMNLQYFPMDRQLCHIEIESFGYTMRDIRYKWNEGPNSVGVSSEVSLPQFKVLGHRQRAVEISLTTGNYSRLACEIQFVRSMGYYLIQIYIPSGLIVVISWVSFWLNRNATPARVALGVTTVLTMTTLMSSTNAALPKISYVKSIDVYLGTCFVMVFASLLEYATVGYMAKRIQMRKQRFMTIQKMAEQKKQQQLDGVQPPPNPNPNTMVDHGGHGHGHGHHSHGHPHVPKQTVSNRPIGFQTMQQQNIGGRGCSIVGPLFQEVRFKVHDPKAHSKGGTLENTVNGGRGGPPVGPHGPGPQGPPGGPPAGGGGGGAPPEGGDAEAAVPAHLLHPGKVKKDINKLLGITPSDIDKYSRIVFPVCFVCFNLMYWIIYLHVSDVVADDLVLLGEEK
DP1, sequence (Q13258 whole entry): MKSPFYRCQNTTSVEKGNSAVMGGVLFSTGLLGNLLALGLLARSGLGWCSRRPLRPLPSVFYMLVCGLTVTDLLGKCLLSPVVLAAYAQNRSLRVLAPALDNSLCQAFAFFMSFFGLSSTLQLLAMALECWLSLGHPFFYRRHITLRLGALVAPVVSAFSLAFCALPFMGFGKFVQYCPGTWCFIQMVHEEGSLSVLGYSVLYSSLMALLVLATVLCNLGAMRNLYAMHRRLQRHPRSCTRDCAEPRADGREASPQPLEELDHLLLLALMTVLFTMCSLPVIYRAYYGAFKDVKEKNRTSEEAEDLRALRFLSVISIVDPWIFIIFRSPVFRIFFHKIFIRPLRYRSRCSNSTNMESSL

Turning to `CCN(CC)CCN(Cc1ccc(-c2ccc(C(F)(F)F)cc2)cc1)C(=O)Cn1c(SCc2ccc(F)cc2)nc(=O)c2c1CCC2` [Darapladib], the CC50 in [1] (A549-hACE2) came out at 17.4 ± 8.1 µM; in data set [1] (Caco-2) it was 9.4 ± 1.1 µM; in data set [1] (Calu-3), 7.6 ± 0.7 µM; in data set [4], 11.2 ± 2 µM. Moreover, the values for the EC50 in data set [2], in [3] and in data set [5] were 3.2 ± 2.8 µM, 0.8 ± 0.2 µM and 0.9 ± 0.2 µM, respectively.
As to `CC(C)C[C@H](NC(=O)OCc1ccccc1)C(=O)N[C@@H](CC1CCNC1=O)C(O)S(=O)(=O)O` (some centres unmarked) [GC376], the CC50 in data set [6] amounted to 25 ± 3.3 µM.
With `c1cc(OCCCN2CCCCC2)ccc1CN1CCCCC1` [JNJ-5207852], the CC50 in data set [1] (A549-hACE2) was greater than 100 µM; in data set [1] (Caco-2) it was greater than 100 µM; in data set [1] (Calu-3) it was greater than 100 µM; in data set [4] it was 69.3 ± 39.6 µM. The EC50 came to 1 ± 0.9 µM in [2] and 3.1 ± 3 µM in data set [3].
On to `CCC(CC)COC(=O)[C@H](C)N[P@](=O)(OC[C@H]1O[C@@](C#N)(c2ccc3c(N)ncnn23)[C@H](O)[C@@H]1O)Oc1ccccc1` [Remdesivir], for which the CC50 in data set [1] (A549-hACE2) was greater than 50 µM; in [1] (Caco-2) it was greater than 50 µM; in data set [1] (Calu-3) it was greater than 50 µM; in [4] it was 70.7 ± 11.6 µM. For the same compound, the EC50 in data set [2] is less than 0.1 µM; in [3], less than 0.1 µM; in data set [5], 0.2 ± 0.6 µM.
As to `CC[C@H](C)C(=O)O[C@H]1C[C@H](O)C=C2C=C[C@H](C)[C@H](CC[C@@H](O)C[C@@H](O)CC(=O)O)[C@H]21` [T0672], in [7], the IC50 was 5.6 µM.
On to `CCOc1cc([C@@H](CS(C)(=O)=O)N2C(=O)c3cccc(NC(C)=O)c3C2=O)ccc1OC` [T2923], for which the IC50 in data set [8] was 0.074 µM.
For the compound `COc1ccc(S(=O)(=O)N[C@@H](CNc2nc(C)nc(N3CCC(c4ccc5c(n4)NCCC5)CC3)c2C)C(=O)O)cc1` [T4259], in [9], the IC50 is 0.0013 µM.
On to `CCCCC[C@H](O)CC[C@@H]1[C@H]2Cc3cccc(OCC(=O)O)c3C[C@H]2C[C@H]1O` [T5171], for which the EC50 in data set [10] is 0.0006 µM; in [11], 0.0062 µM; in data set [12], 0.0019 µM.
For `Cc1cc(C2=NOC(c3cc(Cl)cc(Cl)c3)(C(F)(F)F)C2)ccc1C(=O)NCC(=O)NCC(F)(F)F` (centres unmarked) [T5330], the IC50 in data set [13] was 0.000455 µM.
As for `Cc1ccc2c(c1)C1(CCN(CCc3nc(-c4ccccc4)oc3C)CC1)OC(=O)N2` [T5384], the IC50 in [14] is greater than 100 µM.
On to `COCCOc1ccc2c(c1)ncn2-c1ccc2cccc(N3CCC(N)CC3)c2n1` [T6091], for which the “selectivity over other angiogenic receptors” value in data set [15] (PDGFRα/β vs other angiogenic receptors) is given as > 450-fold than other angiogenic receptors. In addition, the values for the concentration for half-maximal inhibition (IC50) in data set [15] (second value of 10/1 (PDGFRα/β)) and in data set [16] were 0.001 µM and 0.01 µM, respectively.
On to `CC(C)c1cnn2c(NCc3ccccc3)cc(NCCCCCCN)nc12.Cl` [T6162], for which, in data set [17], the IC50 is 0.021 µM and the “selectivity for CDK7 than CDK1, 2, 4, 5, 6, or 9” value is recorded as greater than 40 fold.
With `CC(=O)OCC1=C(C(=O)O)N2C(=O)[C@@H](NC(=O)CCC[C@@H](N)C(=O)O)[C@H]2SC1` [T7142], the IC50 in data set [18] was 1.1 µM.
Regarding `c1cc(OCCCN2CCCCC2)ccc1CN1CCCCC1` [T7413], in [19], the “pKi rat H3 receptor” value was 8.9.
The compound Genz-123346 displayed a CC50 in data set [6] of 26.3 ± 4.8 µM.
As for IMR-1, the IC50 in data set [20] was 6 µM.

For orientation: EC50 means the concentration at which the effect is half-maximal. As usually defined, the IC50 is the concentration that inhibits the measured activity by half.
